Test results: patent US11773085B2 (Foghorn Therapeutics Inc., priority 2018, dated 2023)

Columns and labels:
[1] = biological target: Nanoluciferase-BRD9 fusion protein (3×FLAG-NLuc-BRD9) (Homo sapiens (Human), UniProt Q9H8M2); experiment: SYO1 BRD9 NanoLuc degradation assay; format: cell-based; settings: SYO-1 cells expressing 3×FLAG-NLuc-BRD9, 6 hours, 1 μM top dose; read-out: SYO1 BRD9-NanoLuc degradation IC50
Description: A stable SYO-1 cell line expressing 3×FLAG-NLuc-BRD9 was generated. On day 0 cells were seeded in 30 μL media into each well of 384-well cell culture plates. The seeding density was 8000 cells/well. […] Subsequently plates were incubated for 6 hours in a standard tissue culture incubator and equilibrated at room temperature for 15 minutes. Nanoluciferase activity was measured by adding 15 μL of freshly prepared Nano-Glo Luciferase Assay Reagent (Promega N1130), shaking the plates for 10 minutes and reading the bioluminescence using an EnVision reader.
The Inhibition % was calculated using the following formula: % Inhibition=100×(LumHC−LumSample)/(LumHC−LumLC). DMSO treated cells are employed as High Control (HC) and 1 μM of a known BRD9 degrader standard treated cells are employed as Low Control (LC).

BRD9 bromodomain = BRD9 bromodomain (Homo sapiens (Human), UniProt Q9H8M2); experiment: BRD9 bromodomain TR-FRET competition binding assay; settings: 3 nM Flag-BRD9, 3.75 nM biotinylated ligand, 90 minutes at room temperature
Description: Cleaved His tag was removed by purification.
A mixture of biotinylated-ligand and SureLight™ Allophycocyanin-Streptavidin (APC-SA, PerkinElmer AD0201) in 50 mM HEPES (pH 7.4), 50 mM NaCl, 1 mM TCEP (pH 7), 0.01% (v/v) Tween-20, 0.01% (w/v) bovine serum albumin was added to a white 384-well PerkinElmer Proxiplate Plus plate. DMSO or 3-fold serially diluted compounds were then added to the Proxiplate followed by addition of Flag-BRD9. After a 10 minute incubation at room temperature, Eu-W1024 anti-FLAG (PerkinElmer, AD0273) was added.

[2] = tested on: synovial sarcoma cell lines (SYO1, HS-SY-II, and ASKA); experiment: Growth of synovial sarcoma cell lines, crystal violet staining at day 14; format: cell-based; settings: for inhibition of cell growth: SYO1, HS-SY-II, ASKA, treated daily, day 14, FIG. 8
Description: (§1) Cells were seeded into 6-well or 12-well plates and were treated daily with a BRD9 degrader (Compound 1), a bromo-domain BRD9 binder (Compound 2), E3 ligase binder (lenalidomide), DMSO, or staurosporin (positive control for cell killing), at indicated concentrations. The number of cells was optimized for each cell line. Growth media was refreshed every 5 days. By day 14, medium was removed, cells were washed with PBS, and stained using 500 μL of 0.005% (w/v) crystal violet solution in 25% (v/v) methanol for at least 1 hour at room temperature. Subsequently plates were scanned on an Odyssey CLx Imaging system.

[3] = tested on: synovial sarcoma cell lines (SYO1, Yamato, HS-SY-II, and ASKA); experiment: Growth of synovial sarcoma cell lines (IncuCyte confluency, crystal violet, colony imaging); format: cell-based; settings: 1 μM in crystal violet assay, FIGS. 5, 6, 7
Description: (§2) Cells were treated with DMSO or the BRD9 degrader, Compound 1, at indicated concentrations, and proliferation was monitored from day 7 to day 14 by measuring confluency over time using an IncuCyte live cell analysis system (FIG. 5). Growth medium and compounds were refreshed every 3-4 days.
(§3) Cells were seeded into 12-well plates and treated with DMSO, 1 μM BRD9 inhibitor, Compound 2 (also known as BI-7273, see Martin et al, J Med Chem. 59(10):4462-4475 (2016); see structure of compound 2 below), or 1 μM BRD9 degrader, Compound 1.
(§4) The number of cells was optimized for each cell line. Growth medium and compounds were refreshed every 3-5 days. SYO1, Yamato, A549, 293T and HS-SY-II cells were fixed and stained at day 11. ASKA cells were fixed and stained at day 23. Staining was done by incubation with crystal violet solution (0.5 g Crystal Violet, 27 ml 37% Formaldehyde, 100 mL 10×PBS, 10 mL Methanol, 863 dH20 to 1 L) for 30 min followed by 3× washes with water and drying the plates for at least 24 h at room temperature. Subsequently plates were scanned on an Odyssey CLx Imaging system (FIG. 6).
(§5) Cells were seeded into 96-well ultra low cluster plate (Costar, #7007) in 200 μL complete media and treated at day 2 with DMSO, Staurosporin, or BRD9 degarder, Compound 1, at indicated doses (FIG. 7). Media and compounds were changed every 5 d and cell colonies were imaged at day 14.

SYO1 cells [4] = experiment: Apoptosis assay, Annexin V-FITC Apoptosis Detection Kit; format: cell-based; settings: SYO1, 200 nM or 1 μM, 8 days, compared to DMSO controls
Description: (§6) SYO1 cells were treated for 8 or 13 days with DMSO, a BRD9 degrader (Compound 1) at 200 nM or 1 μM, or an E3 ligase binder (lenalidomide) at 200 nM. Compounds were refreshed every 5 days. Cell cycle analysis was performed using the Click-iT™ Plus EdU Flow Cytometry Assay (Invitrogen). The apoptosis assay was performed using the Annexin V-FITC Apoptosis Detection Kit (Sigma A9210). Assays were performed according to the manufacturer's protocol.

[5] = tested on: non-synovial control cancer cell lines (293T, A549, G401); experiment: Growth of non-synovial control cancer cell lines (crystal violet, colony imaging); format: cell-based; settings: FIGS. 5, 6, 7
Description: as §2, §3, §4, §5

SYO1 cells [6] = experiment: Cell cycle analysis, Click-iT Plus EdU Flow Cytometry Assay; format: cell-based; settings: SYO1, 200 nM or 1 μM, 8 or 13 days, compared to DMSO and lenalidomide
Description: as §6

[7] = tested on: non-synovial control cancer cell lines (RD, HCT116, and Calu6); experiment: Growth of non-synovial control cancer cell lines, crystal violet staining at day 14; format: cell-based; settings: treated daily, FIG. 9
Description: as §1

Row | Structure (SMILES) | DC50 [1] [nM] | IC50 (BRD9 bromodomain) [nM] | further results
1 | COc1cc(-c2cn(C)c(=O)c3cnccc23)cc(OC)c1CN(C)CCCCCCCC(=O)N[C@H](C(=O)N1C[C@H](O)C[C@H]1C(=O)NCc1ccc(-c2scnc2C)cc1)C(C)(C)C [Compound D19, (2S,4R)-1-[(2S)-2-[8-([[2,6-dimethoxy-4-(2-methyl-1-oxo-2,7-naphthyridin-4-yl)phenyl]methyl](methyl)amino)octanamido]-3,3-dimethylbutanoyl]-4-hydroxy-N-[[4-(4-methyl-1,3-thiazol-5-yl)phenyl]methyl]pyrrolidine-2-carboxamide] | > 1000 | 10 to 100 | 
2 | COc1cc(-c2cn(C)c(=O)c3cnccc23)cc(OC)c1CN(C)CCOCCOCC(=O)N[C@H](C(=O)N1C[C@H](O)C[C@H]1C(=O)NCc1ccc(-c2scnc2C)cc1)C(C)(C)C [Compound D20] | > 1000 | 10 to 100 | 
3 | COc1cc(-c2cn(C)c(=O)c3cnccc23)cc(OC)c1CN(C)CC(=O)NCCOCCOCCNc1cccc2c1C(=O)N(C1CCC(=O)NC1=O)C2=O (centres unmarked) [Compound 1] |  |  | inhibition of cell growth [2]: resulted in inhibition of the growth of the cells; growth inhibition compared with the other agents tested ([2]; all synovial cell lines, versus Compound 2 and lenalidomide): most significant growth inhibition; inhibition of cell growth [3]: results in inhibition of the growth of the cells; numbers of early- and late-apoptotic cells (SYO1 cells [4]): increased numbers of early- and late-apoptotic cells; inhibition of cell growth [5]: does not result in inhibition of the growth; numbers of cells in the S-phase of the cell cycle (SYO1 cells [6]): reduced numbers of cells in the S-phase; inhibition of cell growth [7]: did not result in inhibition of the growth
4 | COc1cc(OCC(=O)NCCCCCCCCNc2cccc3c2C(=O)N(C2CCC(=O)NC2=O)C3=O)cc(-c2cn(C)c(=O)c3cnccc23)c1 (centres unmarked) [Compound D6, N-(8-((2-(2,6-dioxopiperidin-3-yl)-1,3-dioxoisoindolin-4-yl)amino)octyl)-2-(3-methoxy-5-(2-methyl-1-oxo-1,2-dihydro-2,7-naphthyridin-4-yl)phenoxy)acetamide] | < 10 | 10 to 100 | 
5 | COc1cc(-c2cn(C)c(=O)c3cnccc23)cc(OC)c1CN(C)C [Compound 2] |  |  | inhibition of cell growth [2]: resulted in inhibition of the growth of the cells; inhibition of cell growth [3]: results in inhibition of the growth of the cells; inhibition of cell growth [5]: does not result in inhibition of the growth; inhibition of cell growth [7]: did not result in inhibition of the growth

More lines, main results first:

Row | DC50 [1] [nM] | IC50 (BRD9 bromodomain) [nM] | Structure (SMILES) | further results
6 | > 1000 | < 10 | COc1cc(-c2cn(C)c(=O)c3cnccc23)cc(OC)c1CN(C)C(=O)CCOc1cccc2c1C(=O)N(C1CCC(=O)NC1=O)C2=O (centres unmarked) [Compound D14, N-[[2,6-dimethoxy-4-(2-methyl-1-oxo-1,2-dihydro-2,7-naphthyridin-4-yl)phenyl]methyl]-3-[[2-(2,6-dioxopiperidin-3-yl)-1,3-dioxo-2,3-dihydro-1H-isoindol-4-yl]oxy]-N-methylpropanamide] | 
7 | 10 to 100 | 10 to 100 | COc1cc(-c2cn(C)c(=O)c3cnccc23)cc(OC)c1CN(C)CC(=O)N(C)CCOCCOCCNc1ccc2c(c1)C(=O)N(C1CCC(=O)NC1=O)C2=O (centres unmarked) [Compound D16, 2-((2,6-dimethoxy-4-(2-methyl-1-oxo-1,2-dihydro-2,7-naphthyridin-4-yl)benzyl)(methyl)amino)-N-(2-(2-(2-((2-(2,6-dioxopiperidin-3-yl)-1,3-dioxoisoindolin-5-yl)amino)ethoxy)ethoxy)ethyl)-N-methylacetamide] | 
8 | < 10 | < 10 | COc1cc(-c2cn(C)c(=O)c3cnccc23)cc(OC)c1CN(C)C(=O)CCCCOc1cccc2c1C(=O)N(C1CCC(=O)NC1=O)C2=O (centres unmarked) [Compound D12, N-[[2,6-dimethoxy-4-(2-methyl-1-oxo-1,2-dihydro-2,7-naphthyridin-4-yl)phenyl]methyl]-5-[[2-(2,6-dioxopiperidin-3-yl)-1,3-dioxo-2,3-dihydro-1H-isoindol-4-yl]oxy]-N-methylpentanamide] | 
9 | 10 to 100 | 10 to 100 | COc1cc(-c2cn(C)c(=O)c3cnccc23)cc(OC)c1CN(C)CC(=O)NCCCCCNc1cccc2c1C(=O)N(C1CCC(=O)NC1=O)C2=O (centres unmarked) [Compound D3, 2-([[2,6-dimethoxy-4-(2-methyl-1-oxo-1,2-dihydro-2,7-naphthyridin-4-yl)phenyl]methyl](methyl)amino)-N-(5-[[2-(2,6-dioxopiperidin-3-yl)-1,3-dioxo-2,3-dihydro-1H-isoindol-4-yl]amino]pentyl)acetamide formic acid] | 
10 | > 1000 | 10 to 100 | COc1cc(-c2cn(C)c(=O)c3cnccc23)cc(OC)c1CN(C)Cc1cccc2c1C(=O)N(C1CCC(=O)NC1=O)C2=O (centres unmarked) [Compound D15, 4-(((2,6-dimethoxy-4-(2-methyl-1-oxo-1,2-dihydro-2,7-naphthyridin-4-yl)benzyl)(methyl)amino)methyl)-2-(2,6-dioxopiperidin-3-yl)isoindoline-1,3-dione formic acid] | 
11 | < 10 | 10 to 100 | COc1cc(-c2cn(C)c(=O)c3cnccc23)cc(OC)c1CN(C)CC(=O)NCCCCCCCCNc1cccc2c1C(=O)N(C1CCC(=O)NC1=O)C2=O (centres unmarked) [Compound D2, 2-([[2,6-dimethoxy-4-(2-methyl-1-oxo-1,2-dihydro-2,7-naphthyridin-4-yl)phenyl]methyl](methyl)amino)-N-(8-[[2-(2,6-dioxopiperidin-3-yl)-1,3-dioxo-2,3-dihydro-1H-isoindol-4-yl]amino]octyl)acetamide formic acid] | 
